Key:
[1] = system: washed platelet samples, platelet aggregation induced by collagen; assay: platelet aggregation test, washed platelets stimulated with collagen (light transmission); format: cell-based; settings: for collagen-induced platelet aggregation: FIG. 8; for aggregation percentage: FIG. 9
Method: FIG. 1 is a diagram illustrating a platelet aggregation test, in accordance with at least one embodiment of the present invention. In FIG. 1, N and C represent the administrations of niclosamide in 0.25% dimethyl sulfoxide (DMSO) or collagen respectively. The platelet aggregation test was performed in accordance with the standard procedure. Four washed platelet samples from the same source were treated with the same volume of niclosamide (0.5 μM, 1 μM, and 2 μM) or a solvent control respectively. Five minutes later, each washed platelet sample was treated with collagen (2 μM) to induce platelet aggregation. FIG. 1 illustrates the light transmission rates of each result. In FIG. 1, the X-axis represents time and the Y-axis represents the transmittance. Note that in FIG. 1, the four platelet aggregation tests performed simultaneously are presented sequentially on the X-axis to render the data readable for one skilled in the art. […] The platelet aggregation test was performed in accordance with the standard procedure. Four washed platelet samples from the same source were treated with the same volume of niclosamide (0.5 μM, 1 μM, and 2 μM) or a solvent control respectively. Five minutes, each washed platelet sample was treated with 2 μM collagen to induce platelet aggregation. The results were detected twenty minutes after the administration of collagen. In FIG. 2, the Y-axis represents the percentage of platelet aggregation, in which the transmittance of platelet-poor plasma is set as 100%. FIG. 8 is a diagram illustrating a platelet aggregation test, in accordance with at least one embodiment of the present invention. Four washed platelet samples from the same source were treated with different treatments at the same time. In FIG. 8, “D” represents the administration of 0.25% DMSO; “C” represents the administration of collagen; “N” represents the administration of niclosamide in 0.25% DMSO; and “S” represents the administration of a STAT-3 inhibitor, STA-21. […] Four washed platelet samples from the same source were treated with different treatments at the same time. In FIG. 9, “D” represents 0.25% DMSO; “STA-21” represents the STAT-3 inhibitor, STA-21; “Niclosamide” represents the niclosamide in 0.25% DMSO; and “Collagen” represents the stimulant, collagen.

mice [2] = assay: tail bleeding assay; format: in vivo; settings: FIG. 10; mice 8-10 weeks; 20 mg/kg injected into the abdomen, 1 h before; distal 3-mm tail segment amputated; DMSO control 5 minutes
Method: FIG. 10 is diagram illustrating the bleeding time results, in accordance with at least one embodiment of the present invention. Mice at 8-10 weeks of age were used in FIG. 10. Isoflurane was provided based on the body weight to anesthetize the mice one hour after the 20 mg/kg niclosamide or 5% DMSO was injected into the abdomen. Followed the standard procedure of tail bleeding assay, the distal 3-mm segment of the tail was amputated with scalpel after the anesthetization. The tails were than immersed in isotonic saline at 37° C. to observe the bleeding time. […] However, the bleeding time for mice treated with niclosamide was extended to around 15 minutes.

[3] = Int J Risk Saf Med 20 (2008) 113-122; cited from earlier work
[4] = system: washed platelet sample, clot formation induced by collagen; assay: optical microscope images of platelet aggregation test; format: cell-based; settings: FIG. 4C; 2 μM niclosamide and 2.5 μM collagen
Method: FIGS. 4A-4C are optical microscope images of a platelet aggregation test, in accordance with at least one embodiment of the present invention. The platelet aggregation test was performed in accordance with the standard procedure on three washed platelet samples from the same source at the same time. […] In FIG. 4C, the washed platelet sample 10 received 2 μM niclosamide and 2.5 μM collagen; In FIG. 4B, the washed platelet sample 10 received 2.5 μM collagen and 0.25% DMSO with the same volume of the niclosamide in FIG. 4C. Note that 0.25% DMSO is the solvent of the niclosamide in FIG. 4C. […] In FIG. 4B, clots 20 formed as a result of the treatment of collagen and DMSO.

mice [5] = assay: ferric chloride occlusive thrombosis of mesenteric arteries; format: in vivo; settings: FIG. 11; mice 8-10 weeks; 20 mg/kg injected into the abdomen; 7.5% FeCl3 on mesenteric arteries for 2 min; DMSO control 5 minutes
Method: FIG. 11 is diagram illustrating the occlusion time, in accordance with at least one embodiment of the present invention. Mice at 8-10 weeks of age were used in FIG. 11. About 20 nM 3,3′-Dihexyloxacarbocyanine iodide (DioC6), a fluorescent dye used for the staining of platelets, was injected into the orbital vein after 20 mg/kg niclosamide or 5% DMSO was injected into the abdomen. An hour later, isoflurane was provided based on the body weight to anesthetize the mice. Followed the standard procedure for studying occlusive thrombosis, Whatman #1 filter papers soaked with 7.5% ferric chloride (FeCl3) were attached to the mesenteric arteries for two minutes. The mesenteric arteries were then immersed in isotonic saline and placed under a fluorescence microscope (Macrofluo, objective 5.0/0.5 NA, Leica Micro-systems) to record the occlusion time and cessation of blood flow.

[6] = system: washed platelet samples, platelet aggregation induced by podoplanin; assay: platelet aggregation test, washed platelets stimulated with podoplanin; format: cell-based; settings: FIG. 6; niclosamide 0.5 μM, 1 μM or 2 μM vs solvent control; 0.4 μM podoplanin; read 20 min after podoplanin
Method: FIG. 6 is a bar chart representing the quantitative results of a platelet aggregation test, in accordance with at least one embodiment of the present invention. All procedures in FIG. 6 are the same as the procedures in FIG. 2, except that the collagen used to stimulate platelet aggregation in FIG. 2 is substituted by podoplanin in FIG. 6. In this embodiment, four washed platelet samples from the same source were treated with the same volume of niclosamide (0.5 μM, 1 μM, and 2 μM) or a solvent control respectively. Five minutes, each washed platelet sample was treated with 0.4 μM podoplanin to induce platelet aggregation. The results were detected twenty minutes after the administration of podoplanin. In FIG. 6, the Y-axis represents the percentage of platelet aggregation, in which the transmittance of platelet-poor plasma is used as 100%.

pSYK and PLCγ2 = assay: western blot of proteins in the signal transduction pathway of platelet aggregation; format: cell-based; settings: FIG. 3; 2 μM niclosamide pretreatment, 2.5 μM collagen
Method: FIG. 3 is a western blot image showing proteins in the signal transduction pathway of platelet aggregation, in accordance with at least one embodiment of the present invention. In FIG. 3, pSYK and PLCγ2 in the signal transduction pathway are suppressed in the washed platelet sample received 2 μM niclosamide, even that is treated with 2.5 μM collagen to induce platelet aggregation. In contrast, the pSYK and PLCγ2 in the washed platelet sample received a solvent control (0.25% DMSO) pretreatment are successfully activated after the 2.5 μM collagen treatment.

| Compound | collagen-induced platelet aggregation ([1]; pretreated with 1.25 μM STA-21, 2 μM collagen) | aggregation percentage ([1]; 1.25 μM STA-21 and 2 μM collagen (DMSO control exceeds 60%)) | platelet aggregation induced by collagen (transmittance over time) ([1]; FIG. 1, niclosamide 0.5 μM, 1 μM, 2 μM given 5 min before collagen 2 μM) | percentage of platelet aggregation ([1]; FIG. 2, niclosamide 0.5 μM, 1 μM or 2 μM vs solvent control, 2 μM collagen, read 20 min after collagen, p<0.01) | collagen-induced platelet aggregation ([1]; pretreated with 0.25 μM niclosamide, 2 μM collagen) | aggregation percentage ([1]; 0.25 μM niclosamide and 2 μM collagen (DMSO control exceeds 60%)) | IC50 relative to STA-21 ([1]; FIGS. 8 and 9, collagen-induced platelet aggregation) | bleeding time (mice [2]) | safety profile under current conditions of use [3] | platelet aggregation / clots under 20× optical microscope [4] | occlusion time (mice [5]) | percentage of platelet aggregation [6] | pSYK and PLCγ2 in the signal transduction pathway (pSYK and PLCγ2) |
| --- | --- | --- | --- | --- | --- | --- | --- | --- | --- | --- | --- | --- | --- |
| C[C@@H]1CC(=O)c2c(ccc3c2C(=O)c2cccc(O)c2C3=O)C1 [STA-21, ochromycinone] | suppressed | less than 40% |  |  |  |  |  |  |  |  |  |  |  |
| O=C(Nc1ccc([N+](=O)[O-])cc1Cl)c1cc(Cl)ccc1O [niclosamide, 5-chloro-N-(2-chloro-4-nitrophenyl)-2-hydroxybenzamide] |  |  | suppresses the platelet aggregation induced by collagen in a dose-dependent manner | significantly reduced | suppressed | less than 30% | lower IC50 compared to STA-21 | around 15 minutes | there is no information to suggest an unfavorable safety profile of the drug under current conditions of use | No platelet aggregation is observed | around 25 minutes | significantly reduced | suppressed |

— patent US11260034B2, “Method of using niclosamide derivatives” (CHANG GUNG UNIVERSITY, priority 2016, dated 2022)
